Data: US10358448B2, “Therapeutic compounds for pain and synthesis thereof” (priority 2015, dated 2019)
Several values for one entry are separate records, joined by “and”; a condition that tells them apart may be missing. Equal values may be shown once.

Tests used:
[1] = system: Taxol model of neuropathic pain; assay: Taxol animal model for neuropathic pain in mice; type: in vivo
Excerpt: (§1) Table 7 summarizes the activity of Formula 1 in mice models of neuropathic pain following repeated daily administration using different routes of administration.

[2] = system: CCl model of neuropathic pain; assay: CCl animal model for neuropathic pain in mice; type: in vivo; conditions: SC, 150 mg/kg, repeated daily administration
Excerpt: as §1

[3] = PO, 30 mg/kg, repeated daily administration
[4] = SC, doses tested 1, 3, 10 mg/kg, repeated daily administration

Row | Structure (SMILES) | Duration of activity at maximum effect [1, 3] [days] | Level of activity (% of maximum effect-baseline) [1, 3] [%] | Peak of activity (T) [1, 3] | Dose of maximum activity ([1]; PO, dose tested 30 mg/kg) [mg/kg] | Dose of maximum activity ([1]; SC, doses tested 1, 3, 10 mg/kg) [mg/kg] | Duration of activity at maximum effect [1, 4] [days] | Level of activity (% of maximum effect-baseline) [1, 4] [%] | Duration of activity at maximum effect [2] | Level of activity (% of maximum effect-baseline) [2] | Peak of activity (T) [2]
1 | CC(C)(C)C(=O)O[C@@H]1C2[C@H]3C[C@H](C[C@@H]1N3CC1CC1)CN2C(=O)CC(F)(F)F (stereo partly drawn) [Formula 1, (2S,3S,6R,7aR)-1-(cyclopropylmethyl)-4-(3,3,3-trifluoropropanoyl)octahydro-1H-2,6-methanopyrrolo[3,2-b]pyridin-3-yl pivalate] | 3 | 100 | 1-24 H | <30 | 1 | 3 | 100 | – | – | –
2 | NCC1(CC(=O)O)CCCCC1 [Gabapentin] | – | – | – | – | – | – | – | 4-6 H | >100% and 64% | 2-3 H
